The values below come from patent US8278032B2, “Transporter protein in mammal and utilization of the same” (priority 2005, dated 2012).

Structures are written as SMILES. Like-named read-outs stand apart in the source and are kept apart here.

Data set [1] addresses T1, hMATE1 (Homo sapiens, UniProt Q96FL8).
T1 sequence (Q96FL8 1-570): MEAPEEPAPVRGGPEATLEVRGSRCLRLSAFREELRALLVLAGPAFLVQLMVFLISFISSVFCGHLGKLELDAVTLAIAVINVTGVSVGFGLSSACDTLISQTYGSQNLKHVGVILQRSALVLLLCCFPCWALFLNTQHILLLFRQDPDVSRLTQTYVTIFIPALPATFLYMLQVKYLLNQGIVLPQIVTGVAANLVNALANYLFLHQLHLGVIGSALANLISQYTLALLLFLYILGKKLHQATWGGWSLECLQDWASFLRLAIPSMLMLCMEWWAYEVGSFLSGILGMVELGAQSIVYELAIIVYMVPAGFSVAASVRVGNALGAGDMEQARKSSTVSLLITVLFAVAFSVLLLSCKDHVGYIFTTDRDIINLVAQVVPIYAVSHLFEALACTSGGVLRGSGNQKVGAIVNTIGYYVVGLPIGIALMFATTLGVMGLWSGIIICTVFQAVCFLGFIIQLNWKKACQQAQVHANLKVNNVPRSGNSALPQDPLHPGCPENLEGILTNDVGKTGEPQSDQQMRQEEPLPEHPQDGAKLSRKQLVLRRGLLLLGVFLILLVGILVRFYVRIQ
Kind of data set: Inhibition of RI-labeled TEA uptake in HEK293 cells expressing hMATE1. The note with it: for Inhibition of TEA uptake activity (in words, summary of Table 1): MATE1 expressing HEK293 cells, 50 μM TEA, pH 8.0; for TEA uptake activity percent taking the level with addition of no compound as 100% (% ± S.D.): 50 μM RI-labeled TEA, pH 8.0, HEK293 cells expressing hMATE1.

A further data set deals with T2, mMATE1 (Mus musculus, UniProt Q8K0H1).
T2 construct: expressed in transfected cells; host or cells: HEK293
T2 sequence (Q8K0H1 with tags, fused parts or gaps): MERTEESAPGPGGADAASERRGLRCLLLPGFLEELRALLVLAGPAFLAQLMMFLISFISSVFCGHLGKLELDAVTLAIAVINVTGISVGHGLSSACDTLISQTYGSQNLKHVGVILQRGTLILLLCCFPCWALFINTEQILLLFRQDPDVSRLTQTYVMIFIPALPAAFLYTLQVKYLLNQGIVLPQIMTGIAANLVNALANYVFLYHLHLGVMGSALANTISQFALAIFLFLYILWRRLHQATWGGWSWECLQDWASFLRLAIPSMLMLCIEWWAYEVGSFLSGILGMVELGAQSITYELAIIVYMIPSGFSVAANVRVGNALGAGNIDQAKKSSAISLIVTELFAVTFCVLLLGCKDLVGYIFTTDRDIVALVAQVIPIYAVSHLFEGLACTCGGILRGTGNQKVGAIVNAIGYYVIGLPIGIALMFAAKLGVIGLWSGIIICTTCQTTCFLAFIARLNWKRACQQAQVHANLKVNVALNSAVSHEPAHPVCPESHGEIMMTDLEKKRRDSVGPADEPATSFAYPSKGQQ
Kind of data set: Inhibition of RI-labeled TEA uptake in HEK293 cells expressing mMATE1.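 Also: transfected HEK293 cells held 5 min at 37 °C before tracer addition, uptake read as radioactivity retained on a 0.45-µm membrane filter, mean ± SD of three to nine experiments.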 The data set is classed as cell-based.

The target in data set [2] is T1, hMATE1.
Data set [3] concerns the target T1, hMATE1. The note with it: radioactive nicotine 2 μM, FIG. 10.
Where [4] appears, read: compound 0.1 mM, 50 μM RI-labeled TEA, pH 8.0, HEK293 cells expressing mMATE1, read-out: TEA uptake activity percent taking the level with addition of no compound as 100% (% ± S.D.).
Setting [5] is: compound 5 mM, 50 μM RI-labeled TEA, pH 8.0, HEK293 cells expressing mMATE1.

Regarding `CN/C(=N/CCSCc1nc[nH]c1C)NC#N` [Cimetidine], at hMATE1 [1], the “Inhibition of TEA uptake activity (in words, summary of Table 1)” value (from here on “Inhibition of TEA uptake activity”) is given as “strongly inhibited”. For the same compound, the “TEA uptake activity percent taking the level with addition of no compound as 100% (% ± S.D.)” value on hMATE1 [1] (compound 0.01 mM) amounted to 44.7 ± 7.4%; at hMATE1 [1] (compound 0.1 mM), 9.7 ± 8.7%. Besides, the remaining activity at 10 µM on mMATE1 (compound 0.01 mM, 50 μM RI-labeled TEA, pH 8.0, HEK293 cells expressing mMATE1, read-out: TEA uptake activity percent taking the level with addition of no compound as 100% (% ± S.D.)) was 29.3 ± 5.2%. Moreover, the remaining activity at 100 µM on mMATE1 (setting [4]) came out at 3.1 ± 5.1%.
Turning to `C[C@]12C[C@H](O)[C@H]3[C@@H](CCC4=CC(=O)CC[C@@]43C)[C@@H]1CC[C@@H]2C(=O)CO` [Corticosterone], the “Inhibition of TEA uptake activity” value on hMATE1 [1] is “inhibited”. For the same compound, the “TEA uptake activity percent taking the level with addition of no compound as 100% (% ± S.D.)” value on hMATE1 [1] (compound 0.1 mM) came to 10.0 ± 6.7%. The remaining activity at 100 µM on mMATE1 (setting [4]) came out at 50 ± 2.5%.
Take `N=C(N)N` [Guanidine]: on hMATE1 [1] (compound 0.5 mM), the “TEA uptake activity percent taking the level with addition of no compound as 100% (% ± S.D.)” value stood at 93.4 ± 7.6%. In addition, the remaining activity at 500 µM at mMATE1 (compound 0.5 mM, 50 μM RI-labeled TEA, pH 8.0, HEK293 cells expressing mMATE1, read-out: TEA uptake activity percent taking the level with addition of no compound as 100% (% ± S.D.)) was determined as 96 ± 8.5%.
As to `CC(O)C(=O)O` (centres unmarked) [Lactate], the “TEA uptake activity percent taking the level with addition of no compound as 100% (% ± S.D.)” value on hMATE1 [1] (compound 10 mM) amounted to 103.8 ± 8.8%; at mMATE1 (compound 10 mM, 50 μM RI-labeled TEA, pH 8.0, HEK293 cells expressing mMATE1), 93.9 ± 3.2%.
For orientation: Km means the substrate concentration at which the rate is half of its maximum. In the case of `C[n+]1ccc(-c2ccccc2)cc1` [MPP, 1-methyl-4-phenylpyridinium], the Vmax of transport on hMATE1 [2] (MPP as substrate, MATE1, species not stated) worked out at 170 pmol/min/mg protein. The Km on hMATE1 [2] (read-out: Km value of transport, substrate transport, cells expressing wild type MATE1 (TEA: FIG. 9(c)), MPP: MATE1, species not stated) was determined as 16 µM. At hMATE1 [1], the “Inhibition of TEA uptake activity” value is recorded as “inhibited”. The “TEA uptake activity percent taking the level with addition of no compound as 100% (% ± S.D.)” value at hMATE1 [1] (compound 0.1 mM) came to 67.4 ± 8.4%; on hMATE1 [1] (compound 5 mM), 0.0 ± 0.3%; at mMATE1 (compound 0.1 mM, 50 μM RI-labeled TEA, pH 8.0, HEK293 cells expressing mMATE1) it was 33.1 ± 9.5%; on mMATE1 (setting [5]) it was 0.0 ± 2.1%.
Turning to `COc1ccc2[nH]cc(CCNC(C)=O)c2c1` [Melatonin], the “Inhibition of TEA uptake activity” value on hMATE1 [1] is listed as “inhibited”. Besides, the “TEA uptake activity percent taking the level with addition of no compound as 100% (% ± S.D.)” value on hMATE1 [1] (compound 0.1 mM) was 85.0 ± 4.0%. Further, on mMATE1 (HEK293, pH 8, read-out: TEA uptake activity percent taking the level with addition of no compound as 100% (% ± S.D.)), the remaining activity at 100 µM turned out to be 51.4 ± 0.8%.
On to `CNC(=O)c1cccnc1` [NMN, N-methylnicotinamide], for which the “TEA uptake activity percent taking the level with addition of no compound as 100% (% ± S.D.)” value on hMATE1 [1] (compound 1 mM) is reported as 93.5 ± 1.9%. Moreover, the remaining activity at 1000 µM at mMATE1 (compound 1 mM, 50 μM RI-labeled TEA, pH 8.0, HEK293 cells expressing mMATE1, read-out: TEA uptake activity percent taking the level with addition of no compound as 100% (% ± S.D.)) came to 115 ± 8.9%.
Take `CN1CCCC1c1cccnc1` (centres unmarked) [Nicotine]: the “Inhibition of TEA uptake activity” value on hMATE1 [1] is on record as “mildly inhibited”. Also, the figures for the “TEA uptake activity percent taking the level with addition of no compound as 100% (% ± S.D.)” value on hMATE1 [1] (compound 0.1 mM) and at hMATE1 [1] (compound 5 mM) were 63.7 ± 5.0% and 5.8 ± 4.3%, respectively. In addition, the remaining activity at 100 µM at mMATE1 (setting [4]) worked out at 91.9 ± 3.1%. The remaining activity at 5000 µM on mMATE1 (compound 5 mM, 50 μM RI-labeled TEA, pH 8.0, HEK293 cells expressing mMATE1, read-out: TEA uptake activity percent taking the level with addition of no compound as 100% (% ± S.D.)) came out at 36.7 ± 3.1%. Further, the “Nicotine transport by MATE1 (in words)” value on hMATE1 [3] is “functioning as a nicotine transporter”.
Consider `Nc1ccc(C(=O)NCC(=O)O)cc1` [PAH], for which the “TEA uptake activity percent taking the level with addition of no compound as 100% (% ± S.D.)” value on hMATE1 [1] (compound 5 mM) was 110.3 ± 2.7%; at mMATE1 (setting [5]) it was 94.7 ± 9.1%.
